Literature values as cited in PMC7503629, “Synthesis and Biological Studies on Dinuclear Gold(I) Complexes with Di-(N-Heterocyclic Carbene) Ligands Functionalized with Carbohydrates” (Molecules, 2020).

Set-up: method as in doi:10.1002/ejic.201700768
Settings: attributed to low mitochondrial penetration; cited from earlier work

[Au(magi)Cl] (magi = 1-methyl-3-(2,3,4,6-tetra-O-acetyl-β-D-glucopyranosyl)imidazole-2-ylidene)
antiproliferative activity (in words): inertness
